In brackets after ≈: the same amount, converted by molar mass. Where a SMILES comes first, the peptide text is derived from it. Bridges are numbered along the chain shown (N, C = ends). Roman numbers before positions name the chains, in order. [ ]: non-standard residue; d: D form. The star is where a group is joined. Tle = CC(C)(C)[C@H](N)C(=O)O; NMeV = CN[C@H](C(=O)O)C(C)C; Hiv = CC(C)[C@H](O)C(=O)O; dDab = NCC[C@@H](N)C(=O)O; hSer = N[C@@H](CCO)C(=O)O; NHCH(CH2OH)2 = OCC(CO)N*; Dab = NCC[C@H](N)C(=O)O; Dap = NC[C@H](N)C(=O)O

Holding throughout (type): cell-based
The test system of data set [1] is Acinetobacter baumannii 872842. As to conditions: 872842. The method, then: (§1) The in vitro antimicrobial activities of the peptides were determined in 96-well plates (Greiner, polystyrene) by the standard CLSI broth microdilution method (Clinical and Laboratory Standards Institute 2014. Performance standards for antimicrobial susceptibility testing, 24th informational supplement. Approved standard CLSI M100-S24; Clinical and Laboratory Standards Institute, Wayne, Pa.). The following microorganisms were used to determine antibiotic activity of the peptides: Escherichia coli ATCC 25922, Klebsiella pneumoniae SSI #3010^a), Acinetobacter baumannii DSM 30008, Pseudomonas aeruginosa ATCC 27853 and the clinical isolates Escherichia coli 926415^b), Klebsiella pneumoniae 968733^b), Acinetobacter baumannii 872842^b), Enterobacter cloacae 848840^b) and Escherichia coli MCR-1 Af45^c). Before preparation of inocula, Escherichia coli MCR-1 Af45 was subcultured on Mueller-Hinton II (MH-cation adjusted) agar containing 2 μg/mL colistin. ^a) Obtained from Statens Serum Institut (SSI), Copenhagen, Denmark^b) Obtained from International Health Management Associates, Inc. (IHMA Europe Sàrl), Epalinges, Switzerland^c) Obtained from Prof. Patrice Nordmann, University of Fribourg, Fribourg, Switzerland
(§2) Inocula of the microorganisms were diluted into Mueller-Hinton II (MH-cation adjusted) broth and compared with a 0.5 McFarland standard to give appr. 10^6 colony forming units (CFU)/mL. Aliquots (90 μL) of inoculum were added to 10 μL of MH-II broth+P-80 (Polysorbate 80, 0.002% final concentration, v/v) containing the peptide in serial two-fold dilutions. Antimicrobial activities of the peptides were expressed as the minimal inhibitory concentration (MIC) in μg/mL at which no visible growth was observed after 18-20 hours of incubation at 35° C.

For data set [2], the system named is Klebsiella pneumoniae 968733. As to conditions: 968733. How it is done: as §1, §2
Data set [3] deals with Pseudomonas aeruginosa ATCC 27853. As to conditions: ATCC 27853. The method, then:
as §1, §2

The subject of data set [4] is Escherichia coli ATCC 25922. As to conditions: ATCC 25922. How it is done:
as §1, §2

Data set [5] has as its system Escherichia coli 926415. As to conditions: 926415. How it is done:
as §1, §2

In data set [6] the test system is Klebsiella pneumoniae SSI #3010. Particulars: SSI #3010. How it is done:
as §1, §2

Data set [7] concerns Acinetobacter baumannii DSM 30008. Particulars: DSM 30008. How it is done: as §1, §2
Data set [8] deals with human red blood cells (hRBC). Kind of data set: Hemolysis. Particulars: red cells of human, 1 h, 200. How it is done:
The peptides were tested for their hemolytic activity against human red blood cells (hRBC). Fresh hRBC were washed four times with phosphate buffered saline (PBS) and centrifuged for 10 min at 3000×g. Compounds (200 μg/mL) were incubated with 20% hRBC (v/v) for 1 h at 37° C. and shaking at 300 rpm. A value of 0% and 100% cell lysis, respectively, was determined by incubation of hRBC in the presence of PBS containing 10% water and 2% Triton X-100 in H2O, respectively. The samples were centrifuged, the supernatants were ˜7.5-fold diluted in PBS buffer and the optical densities (OD) were measured at 540 nm and blank corrected. The 100% lysis value (OD540Triton X-100) gave an OD540 of approximately 0.5-1.0.
Percent hemolysis was calculated as follows: (OD540peptide/OD540Triton X-100)×100%.

In general, MIC refers to the least concentration at which growth counts as inhibited. A low value points to greater potency. Take `CC(=O)N[C@H](C(=O)N[C@H]1CSSC[C@@H](C(=O)N[C@H](C(N)=O)C(C)C)NC(=O)[C@H](Cc2ccc(O)cc2)NC(=O)[C@H](CO)NC(=O)[C@H](Cc2c[nH]c3ccccc23)NC(=O)[C@H](CCO)NC(=O)[C@@H](CCN)NC(=O)[C@H](CCC(=O)N[C@@H](CCN)C(=O)N[C@H](C(=O)N[C@@H](CCN)C(=O)N[C@H]2CCNC(=O)[C@H]([C@@H](C)O)NC(=O)[C@H](CCN)NC(=O)[C@H](CCN)NC(=O)[C@H](CC(C)C)NC(=O)[C@@H](CC(C)C)NC(=O)[C@H](CCN)NC2=O)[C@@H](C)O)NC(=O)[C@H](CCN)NC(=O)[C@H](CO)NC1=O)C(C)C` [Ex. 68] (I: Ac-VCS[Dab]E[dDab][hSer]WSYCV-NH2 / II: [Dab]T[Dab][Dab][Dab][dL]L[Dab][Dab]T; disulfide I:2-I:11; amide I:5-II:N; lactam II:4-II:C): the MIC is 8 µg/mL (≈ 3.3 µM) in data set [1]; 1 µg/mL (≈ 0.412 µM) in data set [2]; 0.5 µg/mL (≈ 0.206 µM) in data set [3]; 0.25 µg/mL (≈ 0.103 µM) in data set [4]; 2 µg/mL (≈ 0.824 µM) in data set [5]; 0.125 µg/mL (≈ 0.0515 µM) in data set [6]. In data set [7], this molecule had a minimum inhibitory concentration (MIC) of 0.25 µg/mL (≈ 0.103 µM). For the same molecule, the “Hemolysis at 200 μg/mL” value in data set [8] is on record as below 1%.
On to `CC(C)C[C@@H]1NC(=O)[C@@H](CC(C)C)NC(=O)[C@H](CCN)NC(=O)[C@@H](NC(=O)[C@H](CCN)NC(=O)[C@@H](NC(=O)[C@H](CCN)NC(=O)CC[C@@H]2NC(=O)[C@H](CCN)NC(=O)[C@H](C(C)C)NC(=O)[C@@H](NC(=O)[C@@H](O)C(C)C)CSSC[C@@H](C(=O)NC(CO)CO)NC(=O)[C@H](Cc3ccc(O)cc3)NC(=O)[C@H](CO)NC(=O)[C@H](Cc3c[nH]c4ccccc34)NC(=O)[C@H](CCO)NC(=O)[C@@H](CCN)NC2=O)[C@@H](C)O)CCNC(=O)[C@H]([C@@H](C)O)NC(=O)[C@H](CCN)NC(=O)[C@H](CCN)NC1=O` [Ex. 97] (I: H-[Hiv]CV[Dab]E[dDab][hSer]WSYC-{NHCH(CH2OH)2} / II: [Dab]T[Dab][Dab][Dab][dL]L[Dab][Dab]T; disulfide I:2-I:11; amide I:5-II:N; lactam II:4-II:C), for which the MIC in data set [1] is 2 µg/mL (≈ 0.843 µM); in data set [2] it was 8 µg/mL (≈ 3.37 µM); in data set [3], 0.25 µg/mL (≈ 0.105 µM); in data set [4], 0.25 µg/mL (≈ 0.105 µM); in data set [5], 2 µg/mL (≈ 0.843 µM); in data set [6], 0.125 µg/mL (≈ 0.0527 µM). Moreover, the MIC in data set [7] turned out to be 0.25 µg/mL (≈ 0.105 µM). Also, the “Hemolysis at 200 μg/mL” value in data set [8] is reported as below 1%.
For `CC(C)C[C@@H]1NC(=O)[C@@H](CC(C)C)NC(=O)[C@H](CCN)NC(=O)[C@@H](NC(=O)[C@H](CCN)NC(=O)[C@@H](NC(=O)[C@H](CCN)NC(=O)CC[C@@H]2NC(=O)[C@H](CCN)NC(=O)[C@H](Cc3ccc(O)cc3)NC(=O)[C@@H](NC(=O)[C@@H](N)C(C)C)CCC(=O)NCC[C@@H](C(=O)N[C@@H](CO)C(=O)O)NC(=O)[C@H](C(C)(C)C)NC(=O)[C@H](CO)NC(=O)[C@H](Cc3c[nH]c4ccccc34)NC(=O)[C@H]([C@@H](C)O)NC(=O)[C@@H](CCN)NC2=O)[C@@H](C)O)CCNC(=O)[C@H]([C@@H](C)O)NC(=O)[C@H](CCN)NC(=O)[C@H](CCN)NC1=O` [Ex. 56] (I: H-VEY[Dab]E[dDab]TWS[Tle][Dab]S-OH / II: [Dab]T[Dab][Dab][Dab][dL]L[Dab][Dab]T; lactam I:2-I:11, II:4-II:C; amide I:5-II:N), the MIC in data set [3] was 0.5 µg/mL (≈ 0.208 µM); in data set [4] it was 0.5 µg/mL (≈ 0.208 µM); in data set [6], 1 µg/mL (≈ 0.415 µM); in data set [7], 1 µg/mL (≈ 0.415 µM). Besides, the “Hemolysis at 200 μg/mL” value in data set [8] is below 1%.
Regarding `CC(=O)N[C@H](C(=O)N[C@@H](CCN)C(=O)N[C@@H](Cc1ccc(O)cc1)C(=O)N[C@@H](CN)C(=O)N[C@@H](CCC(=O)N[C@@H](CCN)C(=O)N[C@H](C(=O)N[C@@H](CN)C(=O)N[C@H]1CCNC(=O)[C@H]([C@@H](C)O)NC(=O)[C@H](CCN)NC(=O)[C@H](CCN)NC(=O)[C@H](CC(C)C)NC(=O)[C@@H](CC(C)C)NC(=O)[C@H](CCN)NC1=O)[C@@H](C)O)C(=O)N[C@H](CCN)C(=O)N[C@@H](CO)C(=O)N[C@@H](Cc1c[nH]c2ccccc12)C(=O)N[C@@H](CO)C(=O)N[C@H](C(=O)N[C@@H](CCC(=O)O)C(=O)N[C@@H](CO)C(N)=O)C(C)(C)C)C(C)C` [Ex. 229] (I: Ac-V[Dab]Y[Dap]E[dDab]SWS[Tle]ES-NH2 / II: [Dab]T[Dap][Dab][Dab][dL]L[Dab][Dab]T; amide I:5-II:N; lactam II:4-II:C), the MIC in data set [3] was determined as 0.5 µg/mL (≈ 0.206 µM); in data set [4], 0.125 µg/mL (≈ 0.0516 µM); in data set [6], 0.125 µg/mL (≈ 0.0516 µM); in data set [7], 0.5 µg/mL (≈ 0.206 µM). For the same molecule, in data set [8], the “Hemolysis at 200 μg/mL” value turned out to be 2%.
As for `CC(=O)N[C@@H](CCN)C(=O)N[C@H](C(=O)N[C@H](C(=O)N[C@@H](Cc1ccc(O)cc1)C(=O)N[C@H]1CSSC[C@@H](C(=O)N[C@H](C(=O)N[C@@H](CCN)C(N)=O)C(C)(C)C)NC(=O)[C@H](Cc2c[nH]c3ccccc23)NC(=O)[C@H](CO)NC(=O)[C@@H](CCN)NC(=O)[C@H](CCC(=O)N[C@@H](CCN)C(=O)N[C@H](C(=O)N[C@@H](CN)C(=O)N[C@H]2CCNC(=O)[C@H]([C@@H](C)O)NC(=O)[C@H](CCN)NC(=O)[C@H](CCN)NC(=O)[C@H](CC(C)C)NC(=O)[C@@H](CC(C)C)NC(=O)[C@H](CCN)NC2=O)[C@@H](C)O)NC1=O)[C@@H](C)O)C(C)C` [Ex. 218] (I: Ac-[Dab]VTYCE[dDab]SWC[Tle][Dab]-NH2 / II: [Dab]T[Dap][Dab][Dab][dL]L[Dab][Dab]T; disulfide I:5-I:10; amide I:6-II:N; lactam II:4-II:C), the minimal inhibitory concentration (MIC) in data set [3], in data set [4], in data set [6] and in data set [7] was 0.125 µg/mL (≈ 0.0512 µM) in each case. Further, the “Hemolysis at 200 μg/mL” value in data set [8] is recorded as below 1%.
Consider `CN[C@H](C(=O)N[C@@H](CN)C(=O)N[C@@H](Cc1ccc(O)cc1)C(=O)N[C@H]1CSSC[C@@H](C(=O)N[C@H](C(=O)N[C@@H](C)C(=O)N[C@@H](CO)C(N)=O)C(C)(C)C)NC(=O)[C@H](Cc2c[nH]c3ccccc23)NC(=O)[C@H]([C@@H](C)O)NC(=O)[C@@H](CCN)NC(=O)[C@H](CCC(=O)N[C@@H](CCN)C(=O)N[C@H](C(=O)N[C@@H](CCN)C(=O)N[C@H]2CCNC(=O)[C@H]([C@@H](C)O)NC(=O)[C@H](CCN)NC(=O)[C@H](CCN)NC(=O)[C@H](CC(C)C)NC(=O)[C@@H](CC(C)C)NC(=O)[C@H](CCN)NC2=O)[C@@H](C)O)NC1=O)C(C)C` [Ex. 180] (I: H-[NMeV][Dap]YCE[dDab]TWC[Tle]AS-NH2 / II: [Dab]T[Dab][Dab][Dab][dL]L[Dab][Dab]T; disulfide I:4-I:9; amide I:5-II:N; lactam II:4-II:C), for which the MIC in data set [3] amounted to 0.125 µg/mL (≈ 0.0525 µM); in data set [4] it was 0.125 µg/mL (≈ 0.0525 µM); in data set [6], 0.5 µg/mL (≈ 0.21 µM); in data set [7], 0.25 µg/mL (≈ 0.105 µM). Also, the “Hemolysis at 200 μg/mL” value in data set [8] is given as below 1%.

These data come from patent US11629171B2, “Beta-hairpin peptidomimetics” (POLYPHOR AG, priority 2017, dated 2023).
